{"source": "patent US20260232712A1", "about": "“Food for Improving Intestinal Environment” (AJINOMOTO CO., INC., priority 2023, published 2026)", "key": {"C. sporogenes [1]": {"test_system": "C. sporogenes", "experiment": "Pure culture growth test of C. sporogenes with added amino acid (OD600)", "format": "cell-based, Clostridium sporogenes", "details": "amino acid added at final concentration 4 mM; 1/5 diluted medium; vs control; FIG. 1-2", "description": "Amino acids that promote the growth of an IPA-producing bacterium C. sporogenes were narrowed down using a genome-scale metabolic model (GEM) simulation, and then evaluated in a pure culture system. The GEM simulation was performed using COBRA toolbox of MATLAB (registered trademark), and amino acids that affected the growth of C. sporogenes when 20 types of amino acids were removed one by one were selected. Then, the influence of amino acids selected by GEM analysis on the growth of C. sporogenes was investigated in a pure culture system. As C. sporogenes, an in-house strain from Ajinomoto Co., Inc. was used, and as the culture medium, ⅕ diluted enhanced Clostridium medium (Difico, #62620609) was used. Each amino acid was added to the medium to a final concentration of 4 mM, and the growth of C. sporogenes was evaluated using OD600 as an indicator. The control contained no addition of amino acid (culture medium only)."}, "C. sporogenes [2]": {"test_system": "C. sporogenes", "experiment": "IPA production by concentrated C. sporogenes bacterial solution with Trp and/or Phe", "format": "cell-based, Clostridium sporogenes", "details": "37° C., anaerobic, 24 hr; Trp 0.3 mM fixed, Phe 0.3-1.2 mM; FIG. 1-3", "description": "To evaluate the influence of Trp and a combination of Trp and Phe on IPA production, pure culture experiments using C. sporogenes were performed. As C. sporogenes, in-house strain of Ajinomoto Co., Inc. was used. First, 800 μL of C. sporogenes glycerol stock was added to 40 mL of reinforced Clostridium medium and cultured under anaerobic conditions at 37° C. for 18 hr. After culturing, centrifugation was performed at 9,100×g for 5 min at 4° C., and the precipitate was collected under anaerobic conditions, washed twice with PBS, and finally suspended in 5 mL of PBS after anaerobic treatment to obtain a concentrated bacterial solution. The influence of the concentrated bacterial solution on IPA production was investigated. […] Furthermore, similar to Experimental Example 1, the influence of Phe/Trp molar ratios between 1 and 10 on IPA production in C. sporogenes was evaluated using GEM analysis.\nThe IPA concentration in the culture supernatant was analyzed using an LC-MS/MS mass spectrometry system (mass spectrometer: SCIEX API3200, pump: Shimadzu Corporation LC-20AD, autosampler: Shimadzu Corporation SIL-20AC, column oven: Shimadzu Corporation CTO-20AC, system controller: Shimadzu Corporation CBM-20A, degasser: Shimadzu Corporation DGU-20A, nitrogen generator: Airtech AT5NP-25CSL). […]"}}, "data": [{"smiles": "N[C@@H](Cc1ccccc1)C(=O)O", "note": "[Phe, L-phenylalanine]", "values": [{"measurement": "growth of C. sporogenes (OD600)", "setting": "C. sporogenes [1]", "value": "promoted the growth of C. sporogenes"}, {"measurement": "IPA in the culture supernatant", "setting": "C. sporogenes [2]", "value": "no effect"}]}]}
